Measured values reported in the supplement of paper PMC10307832.

How the values were obtained:
Experiment in all cases: relative viability (nuclei count vs DMSO), 5 days (fraction); higher = more cells survive
[1] = compound: CCN(CCO)CCCC(C)Nc1ccnc2cc(Cl)ccc12 [Hydroxychloroquine] + Cc1nc(NC(=O)N2CCC[C@H]2C(N)=O)sc1-c1ccnc(C(C)(C)C(F)(F)F)c1 [Alpelisib] (partner 2 µM)
Method in brief: (§1)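 A single step with final 0.05% Triton X-100, 1% formaldehyde and 1 ug/ml Hoechst fixed the cells and stained nuclei 5 days after treatment. Lung cancer cell lines in 1536-well plates had been treated by pin tool the day after seeding with one drug alone or a fixed anchor-drug dose plus five library-drug doses (not always all listed) in √10 steps, and nuclei were counted on 4× images. Relative viability is the ratio of nuclei in treated wells to nuclei in vehicle wells, taken as the median of duplicate plates.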

[2] = compound: CCN(CCO)CCCC(C)Nc1ccnc2cc(Cl)ccc12 [Hydroxychloroquine] + CC(=O)c1c(C)c2cnc(Nc3ccc(N4CCNCC4)cn3)nc2n(C2CCCC2)c1=O [Palbociclib] (partner 0.5 µM)
Method in brief: as §1

[3] = compound: CCN(CCO)CCCC(C)Nc1ccnc2cc(Cl)ccc12 [Hydroxychloroquine] + CC(C)C[C@H](NC(=O)[C@H](Cc1ccccc1)NC(=O)c1cnccn1)B(O)O [Bortezomib] (partner 0.002 µM)
Method in brief: as §1

[4] = compound: CCN(CCO)CCCC(C)Nc1ccnc2cc(Cl)ccc12 [Hydroxychloroquine] + Cc1nc(Nc2ncc(C(=O)Nc3c(C)cccc3Cl)s2)cc(N2CCN(CCO)CC2)n1 [Dasatinib] (partner 0.075 µM)
Method in brief: as §1

Cell Line	relative viability ([1]; first compound 0.5 µM)	relative viability ([1]; first compound 1.581 µM)	relative viability ([1]; first compound 5 µM)	relative viability ([1]; first compound 15.81 µM)	relative viability ([1]; first compound 50 µM)	relative viability ([2]; first compound 0.5 µM)	relative viability ([2]; first compound 1.581 µM)	relative viability ([2]; first compound 5 µM)	relative viability ([2]; first compound 15.81 µM)	relative viability ([2]; first compound 50 µM)	relative viability ([3]; first compound 0.5 µM)	relative viability ([3]; first compound 1.581 µM)	relative viability ([3]; first compound 5 µM)	relative viability ([3]; first compound 15.81 µM)	relative viability ([3]; first compound 50 µM)	relative viability ([4]; first compound 0.5 µM)	relative viability ([4]; first compound 1.581 µM)	relative viability ([4]; first compound 5 µM)	relative viability ([4]; first compound 15.81 µM)	relative viability ([4]; first compound 50 µM)
HCC-15	0.925	0.841	0.839	0.879	0.909	0.754	0.762	0.745	0.731	0.574	0.951	0.918	1.08	1.09	1.2	0.621	0.578	0.581	0.609	0.627
RERF-LC-KJ	0.778	0.697	0.732	0.879	0.852	0.838	1.16	1.03	1.12	1.06	1.15	1.1	0.984	1.15	1.08	0.71	0.731	0.793	0.734	1.02
NCI-H1993	0.632	0.712	0.789	0.71	0.692	0.6	0.575	0.692	0.662	0.693	1.01	0.884	1.04	1.13	1.03	0.597	0.699	0.87	0.547	0.566
NCI-H1915	1.03	1.08	1.06	1.13	1.07	0.532	0.495	0.559	0.568	0.542	1.07	0.953	1.02	0.923	1.03	0.337	0.281	0.305	0.331	0.305
SK-LU-1	0.964	0.852	1.05	1.06	1.03	0.381	0.382	0.432	0.361	0.431	1.27	1.04	1.29	1.18	1.37	0.214	0.168	0.174	0.16	0.17
LOU-NH91	0.697	0.617	0.741	0.745	0.758	0.534	0.562	0.5	0.55	0.531	0.467	0.507	0.492	0.475	0.539	0.559	0.453	0.588	0.581	0.593
NCI-H2347	1.06	0.904	1.02	1.11	0.956	0.457	0.418	0.414	0.515	0.383	0.979	0.911	0.931		0.878	0.281	0.149	0.325	0.281	0.274
NCI-H2126	0.727	0.738	0.73	0.775	0.794	0.34	0.341	0.34	0.333	0.379	1.11	1.07	1.09	1.1	1.18	0.724	0.564	0.596	0.622	0.615
HCC-827	1.05	1.03	0.939	1.03	0.979	0.413	0.456	0.467	0.466	0.521	1.03	1.04	1.07	1.16	1.01	0.306	0.378	0.312	0.388	0.314
NCI-H3122	0.798	0.736	0.822	0.779	0.8	0.208	0.193	0.194	0.234	0.21	0.981	1.01	1.05	1.05	1.07	0.879	0.858	0.894	0.92	0.867
HOP-62	0.997	1.18	1.15	1	1.04	0.486	0.429	0.444	0.487	0.548	0.652	0.9	0.751	0.945	1.02	0.57	0.601	0.717	0.636	0.58
